Series [1] concerns the target T1, fatty acid amide hydrolase (FAAH) (Rattus norvegicus, UniProt P97612).
T1 construct: from tissue; host or cells: rat brain homogenates
T1 sequence (P97612 1-579): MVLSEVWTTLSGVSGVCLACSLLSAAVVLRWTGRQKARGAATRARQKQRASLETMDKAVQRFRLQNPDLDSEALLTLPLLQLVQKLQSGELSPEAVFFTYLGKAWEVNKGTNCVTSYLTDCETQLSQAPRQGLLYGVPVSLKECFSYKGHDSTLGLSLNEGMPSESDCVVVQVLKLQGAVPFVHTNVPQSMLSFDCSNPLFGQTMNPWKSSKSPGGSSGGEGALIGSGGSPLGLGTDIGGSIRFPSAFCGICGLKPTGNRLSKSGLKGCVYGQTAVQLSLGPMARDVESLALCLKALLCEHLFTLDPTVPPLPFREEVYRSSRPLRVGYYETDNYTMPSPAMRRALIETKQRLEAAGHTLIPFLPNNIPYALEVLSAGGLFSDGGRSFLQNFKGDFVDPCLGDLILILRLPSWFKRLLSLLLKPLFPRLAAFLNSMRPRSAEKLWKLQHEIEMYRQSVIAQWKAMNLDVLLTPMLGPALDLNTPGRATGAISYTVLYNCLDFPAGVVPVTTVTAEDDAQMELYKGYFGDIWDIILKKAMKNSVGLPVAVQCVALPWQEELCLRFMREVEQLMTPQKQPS
Particulars: rat brain homogenates; read-out: IC50, inhibition of anandamide hydrolysis; cited from earlier work.

For a further series, the system named is HCV infected cells. Particulars: in vitro; cited from earlier work.
The conditions of series [2]: cited from earlier work.
The next series relates to CB1 and CB2. Particulars: cited from earlier work; for Agonism or antagonism against CB1 and CB2: up to 20 μM.
The target of the next series is GPR55 (Homo sapiens, UniProt Q9Y2T6). The note with it: cited from earlier work.
Chain of GPR55 (Q9Y2T6 whole entry, species assumed): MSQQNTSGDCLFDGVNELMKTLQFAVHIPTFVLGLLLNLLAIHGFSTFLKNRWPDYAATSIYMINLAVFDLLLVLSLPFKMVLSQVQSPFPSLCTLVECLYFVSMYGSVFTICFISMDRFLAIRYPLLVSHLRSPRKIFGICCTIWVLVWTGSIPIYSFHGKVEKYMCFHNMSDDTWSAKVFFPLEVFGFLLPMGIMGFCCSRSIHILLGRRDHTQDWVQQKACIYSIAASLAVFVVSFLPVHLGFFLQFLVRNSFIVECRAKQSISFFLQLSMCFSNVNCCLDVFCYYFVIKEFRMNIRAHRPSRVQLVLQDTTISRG
The subject of series [3] is TCR β chain immune repertoire. Kind of series: T cell receptor β chain immune repertoire diversity index after a controlled dose (iRepertoire sequencing of blood). The format is in vivo, human. Particulars: for Total number of clonotypes: within 24-48 hr of applied dose.
Series [4] relates to A/H1N1 Singapore 6/86 influenza virus. The note with it: cited from earlier work.
Series [5] deals with A/swine/HeBei/012/2008 (H9N2) viruses. Particulars: intra-nasal inoculation with or without NAC; cited from earlier work.
In another series the test system is human PBMCs. Particulars: NAC 1 mM, in vitro; cited from earlier work.
Series [6] concerns influenza A (H5N1) viruses. Particulars: lung epithelial cells; cited from earlier work.
The test system of series [7] is HIV. The note with it: cited from earlier work.
For series [8], the system named is HIV. The note with it: 293.27.2, H9, MOLT-4 cells, PBMCs; with or without TNFα / PMA stimulation; cited from earlier work.
Series [9] is described as follows: Intoxication after topical application of THC salve. The note with it: 10 mg THC, application for three days.
Series [10] addresses monoacylglycerol lipase (MAGL). The note with it: reversible mechanism; read-out: IC50, inhibition of MAGL; cited from earlier work.
A further series deals with CB1 receptor (Homo sapiens, UniProt P21554). Particulars: read-out: I value at the CB1 receptor; cited from earlier work.
Chain of CB1 receptor (P21554 whole entry): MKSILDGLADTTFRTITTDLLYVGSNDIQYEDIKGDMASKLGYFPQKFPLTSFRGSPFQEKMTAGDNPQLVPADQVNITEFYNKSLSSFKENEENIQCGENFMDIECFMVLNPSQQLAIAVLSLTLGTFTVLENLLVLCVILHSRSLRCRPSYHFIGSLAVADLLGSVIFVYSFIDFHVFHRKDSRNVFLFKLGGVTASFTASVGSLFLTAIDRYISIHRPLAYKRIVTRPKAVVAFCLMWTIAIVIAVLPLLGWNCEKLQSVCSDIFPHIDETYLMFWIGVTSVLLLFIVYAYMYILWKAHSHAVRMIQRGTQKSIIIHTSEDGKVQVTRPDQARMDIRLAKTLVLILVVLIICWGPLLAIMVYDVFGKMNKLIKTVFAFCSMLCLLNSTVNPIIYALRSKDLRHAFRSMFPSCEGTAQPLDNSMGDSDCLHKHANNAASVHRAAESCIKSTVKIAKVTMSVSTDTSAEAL
The subject of series [11] is influenza virus strain A/PR8(H1N1). Particulars: lethal influenza infection in mice; cited from earlier work.
The next series has as its system influenza virus. The note with it: combination with ribavirin vs ribavirin alone; cited from earlier work.
The next series addresses CB2 receptor (Homo sapiens, UniProt P34972). The note with it: nM concentrations; cited from earlier work.

Each structure is given as a SMILES string. Where “and” joins values, the source holds several entries; their conditions need not be identical. Identical values can stand only once. Entries after “also recorded” stand apart in the source; their conditions may differ.

Chain of CB2 receptor (P34972 whole entry): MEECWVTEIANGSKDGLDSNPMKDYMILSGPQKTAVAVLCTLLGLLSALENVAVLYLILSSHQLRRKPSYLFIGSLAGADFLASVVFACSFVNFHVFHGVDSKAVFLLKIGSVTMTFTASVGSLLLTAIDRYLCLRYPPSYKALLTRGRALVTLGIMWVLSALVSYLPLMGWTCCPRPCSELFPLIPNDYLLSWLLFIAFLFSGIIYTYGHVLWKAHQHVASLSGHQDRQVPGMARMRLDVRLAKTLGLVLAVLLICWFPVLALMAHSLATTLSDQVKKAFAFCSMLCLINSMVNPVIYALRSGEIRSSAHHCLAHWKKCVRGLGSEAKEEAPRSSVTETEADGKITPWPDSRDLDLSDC

As a reminder, the IC50 is the point on the concentration scale where inhibition reaches its midpoint. Take `O=c1cc(-c2ccccc2)oc2cc(O)ccc12` [7-hydroxyflavone]: the IC50 in [1] was less than 1000 nM.

For the compound `C=C(C)[C@@H]1CCC(C)=C[C@H]1c1c(O)cc(CCCCC)cc1O` [CBD, cannabidiol], in the series on HCV infected cells, the “Cell death of HCV infected cells” value is listed as “approximately 85%”.

For the compound `CCCCCc1cc(O)c2c(c1)OC(C)(C)[C@@H]1CCC(C)=C[C@@H]21` [Dronabinol], in series [2] (oral), the “Amount reaching the blood stream by absorption through the digestive system” value is given as 10-20 % of the administered dose. The “Duration of peak therapeutic effect” value in [2] (post administration) is 2 to 4 h.

For the compound `Cc1cccc(N2CCN(C(=O)c3cc(S(=O)(=O)N(C)C)ccc3N3CCCC3)CC2)c1C` [ML184], the “Selectivity against CB1 and CB2” value in the series on CB1 and CB2 was 57 fold. At GPR55, the “Potency for GPR55” value is 263 nM.

For `COc1ccc(-c2csc(NC(=O)CSc3nnc4c(C)cc5ccccc5n34)n2)cc1` [ML185], in the series on CB1 and CB2, the “Selectivity against CB1 and CB2” value is recorded as “greater than 48 fold”. Further, the “Potency for GPR55” value at GPR55 is given as 658 nM.

Turning to `COc1ccc(S(=O)(=O)N2CCOCC2)cc1NC(=O)c1cc2c(s1)CCCC2` [ML186], the “Selectivity against CB1 and CB2” value in the series with CB1 and CB2 was “greater than 100 fold”. In addition, on GPR55, the “Potency for GPR55” value is given as 305 nM.

Take `Cc1ccc(C2(C(=O)N3CCC(n4nc(-c5ccccc5)oc4=O)CC3)CC2)cc1` [ML191]: in the series on CB1 and CB2, the “Agonism or antagonism against CB1 and CB2” value (“Agonism or antagonism” for short) was “no observed agonism or antagonism”.

Turning to `Cc1nc(N2CCN(C(=O)c3ccco3)CC2)c2c3c(sc2n1)CCCC3` [ML192], in the series with CB1 and CB2, the “Agonism or antagonism” value was “no observed agonism or antagonism”.

For `Cc1cc(C)c2nc(-c3ccccn3)cc(C(=O)Nc3ccc(S(=O)(=O)Nc4onc(C)c4C)cc3)c2c1` [ML193], in the series on CB1 and CB2, the “Agonism or antagonism” value is recorded as “no observed agonism or antagonism”.

Take `CC(=O)N[C@@H](CS)C(=O)O` [NAC, N-acetylcysteine]: in [3] (NAC single 1200 mg dose (2×600 mg effervescent tablets), 24 hours post dose), the “Diversity index, Dosed” value was 20.0 and 15.9. Further, in series [3] (NAC single 1200 mg dose, 24 hours vs baseline), the “Diversity index, Fold change” value was 1.6 fold and 1.5 fold. In addition, in series [3] (after a single dose), the “Time until immune diversity returns to baseline” value stood at 24 h. Further, the “Total number of clonotypes” value in series [3] is recorded as “increases”. For the same compound, the Tolerability result in series [4] (NAC 600 mg twice daily for 6 months) was “well tolerated”. The “Virus-infected subjects who developed a symptomatic form” value in series [4] (NAC effervescent tablets 600 mg twice daily for 6 months, 79% in the placebo group) was 25%. Moreover, in series [5], the “Pulmonary inflammation, edema, myeloperoxidase, cells and cytokines in BAL fluid” value is listed as “reduced”. Further, the “Influenza virus specific T lymphocyte proliferation and IFNγ production” value in the series with human PBMCs is “increase”. Also, the “Production of pro-inflammatory molecules” value in [6] is “inhibit”. The “Survival, risk ratio” value with HIV [7] (73 subjects with survival data, P=0.0003, median NAC dose 5.3 g/day, median 24 weeks) is recorded as 0.3 (0.1-0.6). Further, in the series with HIV [7] (NAC treatment during the trial, P>0.1), the Viral load result is reported as “did not result in a significant change”. In the series on HIV [7] (NAC treatment during the trial, P>0.9), the “CD4 T cell count” value is given as “did not result in a significant change”. Further, in the series with HIV [7] (NAC treatment for 8 weeks), the “Whole blood GSH and T cell GSH” value is listed as “replenished”. For the same compound, the HIV replication entry in the series on HIV [8] was “inhibit HIV replication; also recorded: blocked stimulation of HIV replication”.

Turning to `CCCCCc1cc(O)c2c(c1)OC(C)(C)[C@@H]1CCC(C)=C[C@@H]21` [THC, Δ^9-tetrahydrocannabinol], the “Total number of clonotypes” value in series [3] is recorded as “rapidly increases”. In addition, the “Intoxication characteristic of THC” value in series [9] is recorded as “without intoxication”.

With `CC(C)=CCC[C@@H](C)[C@@H]1CC[C@]2(C)C3=C(CC[C@@]12C)[C@@]1(C)CC[C@H](O)C(C)(C)[C@@H]1CC3` [euphol], in [10], the IC50 was 315 nM.

On to `C=C[C@H](O)C#CC#CC/C=C\CCCCCCC` [falcarinol], for which the Ki on CB1 receptor is less than 1000 nM.

With `CCOC(=O)C1=C[C@@H](OC(CC)CC)[C@H](NC(C)=O)[C@@H](N)C1` [oseltamivir], the Survival rate in series [11] is 60%.

In the case of `NC(=O)c1ncn([C@@H]2O[C@H](CO)[C@@H](O)[C@H]2O)n1` [ribavirin], the Survival rate in the series with influenza virus was 58%.

`C=C1CC/C=C(\C)CC[C@@H]2[C@@H]1CC2(C)C` [β-caryophyllene]: on CB2 receptor, the “Functional activity at the CB2 receptor” value was “full agonist”.

The values above are taken from patent US20210369661A1, “METHODS AND COMPOSITIONS FOR TREATING AND RECOVERING FROM VIRAL INFECTIONS” (IMMUNOFLEX THERAPEUTICS INC., priority 2020, published 2021).
